# Data reported in ChEMBL document CHEMBL5226282, “TLR2 Agonistic Small Molecules: Detailed Structure-Activity Relationship, Applications, and Future Prospects” (J Med Chem, 2021).
# Experiments:
# Toll-like receptor 1/2 = Toll-like receptor 1/2 (Homo sapiens, UniProt O60603+Q15399); assay: Agonist activity at TLR2/TLR1 in human THP-1 cells; format: cell-based
# [1] = target: Toll-like receptor 1/2 (Mus musculus); assay: Agonist activity at TLR2/TLR1 in mouse Macrophage cell line
# Chain of Toll-like receptor 1/2 (O60603 whole entry): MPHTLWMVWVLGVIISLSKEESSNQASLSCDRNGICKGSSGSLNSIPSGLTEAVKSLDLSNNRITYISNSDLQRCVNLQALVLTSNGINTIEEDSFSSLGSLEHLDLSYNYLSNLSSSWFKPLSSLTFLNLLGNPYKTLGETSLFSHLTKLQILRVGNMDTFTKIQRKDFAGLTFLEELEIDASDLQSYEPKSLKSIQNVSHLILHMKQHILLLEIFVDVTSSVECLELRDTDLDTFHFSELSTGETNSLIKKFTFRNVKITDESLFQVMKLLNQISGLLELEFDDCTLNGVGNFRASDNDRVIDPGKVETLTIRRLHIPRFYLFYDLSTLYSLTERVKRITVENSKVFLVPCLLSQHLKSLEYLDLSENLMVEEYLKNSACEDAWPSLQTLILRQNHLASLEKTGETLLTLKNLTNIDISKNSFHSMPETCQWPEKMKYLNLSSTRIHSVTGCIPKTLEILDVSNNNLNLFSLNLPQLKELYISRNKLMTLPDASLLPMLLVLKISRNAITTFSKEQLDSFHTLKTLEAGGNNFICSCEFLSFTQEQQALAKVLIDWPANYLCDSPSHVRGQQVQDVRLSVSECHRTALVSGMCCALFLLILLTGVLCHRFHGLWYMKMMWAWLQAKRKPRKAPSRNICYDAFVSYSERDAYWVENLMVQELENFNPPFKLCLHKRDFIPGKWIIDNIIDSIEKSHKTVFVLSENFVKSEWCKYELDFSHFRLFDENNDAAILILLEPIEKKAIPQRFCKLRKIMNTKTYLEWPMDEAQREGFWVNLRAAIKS
# Chain of Toll-like receptor 1/2 (Q15399 whole entry): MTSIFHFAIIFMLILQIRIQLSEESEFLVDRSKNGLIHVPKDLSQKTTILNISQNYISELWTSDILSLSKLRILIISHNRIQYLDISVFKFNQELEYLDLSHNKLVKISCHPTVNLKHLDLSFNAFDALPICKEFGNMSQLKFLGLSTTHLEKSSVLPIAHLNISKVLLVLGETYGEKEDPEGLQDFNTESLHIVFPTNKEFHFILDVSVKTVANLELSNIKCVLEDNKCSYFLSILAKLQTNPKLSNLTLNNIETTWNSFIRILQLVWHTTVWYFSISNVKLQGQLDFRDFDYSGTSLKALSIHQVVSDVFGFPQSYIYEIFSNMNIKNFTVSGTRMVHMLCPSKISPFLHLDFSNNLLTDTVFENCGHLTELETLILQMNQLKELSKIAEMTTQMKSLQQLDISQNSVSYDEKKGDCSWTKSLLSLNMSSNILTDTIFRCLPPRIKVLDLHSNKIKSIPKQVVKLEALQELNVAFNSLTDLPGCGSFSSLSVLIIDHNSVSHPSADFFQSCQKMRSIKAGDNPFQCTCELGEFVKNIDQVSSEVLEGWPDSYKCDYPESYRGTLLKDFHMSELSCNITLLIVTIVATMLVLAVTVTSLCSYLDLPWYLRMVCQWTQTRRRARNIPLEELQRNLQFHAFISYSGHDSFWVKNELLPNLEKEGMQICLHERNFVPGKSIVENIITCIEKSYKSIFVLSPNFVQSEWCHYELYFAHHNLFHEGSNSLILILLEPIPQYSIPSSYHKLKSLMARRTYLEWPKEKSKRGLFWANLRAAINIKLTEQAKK
SMILES,EC50 (Toll-like receptor 1/2) [nM],EC50 [1] [nM]
O=C(NCCc1ccc(F)cc1)[C@@H]1CN(C(=O)/C=C/C(=O)N2C[C@@H](C(=O)NCCc3ccc(F)cc3)[C@H](C(=O)NCCc3ccc(F)cc3)C2)C[C@H]1C(=O)NCCc1ccc(F)cc1,> 5000,> 5000
CCCCNC(=O)[C@@H]1CN(C(=O)c2ccc(C(=O)N3C[C@@H](C(=O)NCCCC)[C@H](C(=O)NCCCC)C3)cc2)C[C@H]1C(=O)NCCCC,> 5,> 5
O=C(N[C@H]1C[C@@H]1c1ccccc1)[C@@H]1CN(C(=O)Cc2ccc(CC(=O)N3C[C@@H](C(=O)N[C@H]4C[C@@H]4c4ccccc4)[C@H](C(=O)N[C@H]4C[C@@H]4c4ccccc4)C3)cc2)C[C@H]1C(=O)N[C@H]1C[C@@H]1c1ccccc1,> 5000,> 5000
O=C(N[C@H]1C[C@@H]1c1ccc(F)cc1)[C@@H]1CN(C(=O)c2ccc(C(=O)N3C[C@@H](C(=O)N[C@H]4C[C@@H]4c4ccc(F)cc4)[C@H](C(=O)N[C@@H]4C[C@H]4c4ccc(F)cc4)C3)cc2)C[C@H]1C(=O)N[C@H]1C[C@@H]1c1ccc(F)cc1,0.13,1.2
COc1ccc([C@H]2C[C@@H]2NC(=O)[C@@H]2CN(C(=O)c3ccc(C(=O)N4C[C@@H](C(=O)N[C@H]5C[C@@H]5c5ccc(OC)cc5)[C@H](C(=O)N[C@@H]5C[C@H]5c5ccc(OC)cc5)C4)cc3)C[C@H]2C(=O)N[C@H]2C[C@@H]2c2ccc(OC)cc2)cc1,> 5000,> 5000
O=C(N[C@H]1C[C@@H]1c1ccccc1)[C@@H]1CN(C(=O)c2ccc(C(=O)N3C[C@@H](C(=O)N[C@H]4C[C@@H]4c4ccccc4)[C@H](C(=O)N[C@H]4C[C@@H]4c4ccccc4)C3)c(Br)c2)C[C@H]1C(=O)N[C@H]1C[C@@H]1c1ccccc1,> 5000,> 5000
O=C(NCCc1ccc(F)cc1)[C@@H]1CN(C(=O)c2cccc(C(=O)N3C[C@@H](C(=O)NCCc4ccc(F)cc4)[C@H](C(=O)NCCc4ccc(F)cc4)C3)c2)C[C@H]1C(=O)NCCc1ccc(F)cc1,> 5000,> 5000
N#Cc1ccc([C@H]2C[C@@H]2NC(=O)[C@@H]2CN(C(=O)c3ccc(C(=O)N4C[C@@H](C(=O)N[C@H]5C[C@@H]5c5ccc(C#N)cc5)[C@H](C(=O)N[C@@H]5C[C@H]5c5ccc(C#N)cc5)C4)cc3)C[C@H]2C(=O)N[C@H]2C[C@@H]2c2ccc(C#N)cc2)cc1,> 5000,> 5000
O=C(NCCc1ccc(F)cc1)[C@@H]1CN(C(=O)COCC(=O)N2C[C@@H](C(=O)NCCc3ccc(F)cc3)[C@H](C(=O)NCCc3ccc(F)cc3)C2)C[C@H]1C(=O)NCCc1ccc(F)cc1,> 5000,> 5000
COc1cc(C(=O)N2C[C@@H](C(=O)N[C@H]3C[C@@H]3c3ccccc3)[C@H](C(=O)N[C@H]3C[C@@H]3c3ccccc3)C2)ccc1C(=O)N1C[C@@H](C(=O)N[C@H]2C[C@@H]2c2ccccc2)[C@H](C(=O)N[C@H]2C[C@@H]2c2ccccc2)C1,30,250
O=C(N[C@H]1C[C@@H]1c1ccccc1)[C@@H]1CN(C(=O)c2ccc(C(=O)N3C[C@@H](C(=O)N[C@H]4C[C@@H]4c4ccccc4)[C@H](C(=O)N[C@H]4C[C@@H]4c4ccccc4)C3)c3ccccc23)C[C@H]1C(=O)N[C@H]1C[C@@H]1c1ccccc1,> 5000,> 5000
Nc1cc(C(=O)N2C[C@@H](C(=O)N[C@H]3C[C@@H]3c3ccccc3)[C@H](C(=O)N[C@H]3C[C@@H]3c3ccccc3)C2)ccc1C(=O)N1C[C@@H](C(=O)N[C@H]2C[C@@H]2c2ccccc2)[C@H](C(=O)N[C@H]2C[C@@H]2c2ccccc2)C1,1,140

# More lines, now with the values ahead:
EC50 (Toll-like receptor 1/2) [nM],EC50 [1] [nM],SMILES
360,> 5000,Cc1ccc([C@H]2C[C@@H]2NC(=O)[C@@H]2CN(C(=O)c3ccc(C(=O)N4C[C@@H](C(=O)N[C@H]5C[C@@H]5c5ccc(C)cc5)[C@H](C(=O)N[C@@H]5C[C@H]5c5ccc(C)cc5)C4)cc3)C[C@H]2C(=O)N[C@H]2C[C@@H]2c2ccc(C)cc2)cc1
> 5000,> 5000,COC(=O)[C@@H]1CN(C(=O)c2ccc(C(=O)N3C[C@@H](C(=O)N[C@@H]4C[C@H]4c4ccccc4)[C@H](C(=O)OC)C3)cc2)C[C@H]1C(=O)N[C@@H]1C[C@H]1c1ccccc1
4,270,O=C(N[C@H]1C[C@@H]1c1ccccc1)[C@@H]1CN(C(=O)c2ccc(C(=O)N3C[C@@H](C(=O)N[C@H]4C[C@@H]4c4ccccc4)[C@H](C(=O)N[C@H]4C[C@@H]4c4ccccc4)C3)nc2)C[C@H]1C(=O)N[C@H]1C[C@@H]1c1ccccc1
40,5000,O=C(N[C@H]1C[C@@H]1c1ccc(Cl)cc1)[C@@H]1CN(C(=O)c2ccc(C(=O)N3C[C@@H](C(=O)N[C@H]4C[C@@H]4c4ccc(Cl)cc4)[C@H](C(=O)N[C@@H]4C[C@H]4c4ccc(Cl)cc4)C3)cc2)C[C@H]1C(=O)N[C@H]1C[C@@H]1c1ccc(Cl)cc1
3.5,710,CCCCCCCCNC(=O)[C@@H]1CN(C(=O)c2ccc(C(=O)N3C[C@@H](C(=O)NCCCCCCCC)[C@H](C(=O)N[C@@H]4C[C@H]4c4ccccc4)C3)cc2)C[C@H]1C(=O)N[C@@H]1C[C@H]1c1ccccc1
0.25,80,CCCCCCNC(=O)[C@@H]1CN(C(=O)c2ccc(C(=O)N3C[C@@H](C(=O)N[C@H]4C[C@@H]4c4ccccc4)[C@H](C(=O)N[C@@H]4C[C@H]4c4ccccc4)C3)cc2)C[C@H]1C(=O)N[C@H]1C[C@@H]1c1ccccc1
17,360,CCCNC(=O)[C@@H]1CN(C(=O)c2ccc(C(=O)N3C[C@@H](C(=O)N[C@H]4C[C@@H]4c4ccccc4)[C@H](C(=O)N[C@@H]4C[C@H]4c4ccccc4)C3)cc2)C[C@H]1C(=O)N[C@H]1C[C@@H]1c1ccccc1
> 5000,> 5000,O=C(N[C@H]1C[C@@H]1c1ccccc1)[C@@H]1CN(C(=O)Cc2cccc(CC(=O)N3C[C@@H](C(=O)N[C@H]4C[C@@H]4c4ccccc4)[C@H](C(=O)N[C@H]4C[C@@H]4c4ccccc4)C3)c2)C[C@H]1C(=O)N[C@H]1C[C@@H]1c1ccccc1
1600,> 5000,O=C(N[C@H]1C[C@@H]1c1ccc(Br)cc1)[C@@H]1CN(C(=O)c2ccc(C(=O)N3C[C@@H](C(=O)N[C@H]4C[C@@H]4c4ccc(Br)cc4)[C@H](C(=O)N[C@@H]4C[C@H]4c4ccc(Br)cc4)C3)cc2)C[C@H]1C(=O)N[C@H]1C[C@@H]1c1ccc(Br)cc1
0.18,4,CCCCCCCCCCNC(=O)[C@@H]1CN(C(=O)c2ccc(C(=O)N3C[C@@H](C(=O)N[C@H]4C[C@@H]4c4ccccc4)[C@H](C(=O)N[C@@H]4C[C@H]4c4ccccc4)C3)cc2)C[C@H]1C(=O)NCCCCCCCCCC
0.33,540,CCCCCCCCNC(=O)[C@@H]1CN(C(=O)c2ccc(C(=O)N3C[C@@H](C(=O)N[C@H]4C[C@@H]4c4ccccc4)[C@H](C(=O)N[C@@H]4C[C@H]4c4ccccc4)C3)cc2)C[C@H]1C(=O)N[C@H]1C[C@@H]1c1ccccc1
0.5,2.6,CCCCCCCCCCCCCCCCNC(=O)[C@@H]1CN(C(=O)c2ccc(C(=O)N3C[C@@H](C(=O)N[C@H]4C[C@@H]4c4ccccc4)[C@H](C(=O)N[C@@H]4C[C@H]4c4ccccc4)C3)cc2)C[C@H]1C(=O)N[C@H]1C[C@@H]1c1ccccc1
,> 5,CCCCCCNC(=O)[C@@H]1CN(C(=O)c2ccc(C(=O)N3C[C@@H](C(=O)NCCCCCC)[C@H](C(=O)NCCCCCC)C3)cc2)C[C@H]1C(=O)NCCCCCC
